27 compounds from patent publication US10947254B2, “Methods for treating ulcerative colitis using 3-((1R,3s,5S)-3-((7-((5-methyl-1H-pyrazol-3-yl)amino)-1,6-naphthyridin-5-yl)amino)-8-azabicyclo[3.2.1]octan-8-yl)propanenitrile” (priority 2015, dated 2021) can be followed below.

Test [1] relates to oxazolone-induced colitis. The experiment in a line: Mouse model of oxazolone-induced colitis. To be noted: mice, PO, 1, 3, and/or 10 mg/kg BID (doses up to 10 mg/kg BID). The test is classed as in vivo, BALB/C mice. The protocol:
Assay 7: Mouse Model of Oxazalone-Induced Colitis
Oxazolone-induced colitis is an experimental model that has a histological resemblance to human ulcerative colitis (Heller et al. Immunology, 2002, 17, 629-638). Adult BALB/C mice from Harlan were used in the assay. On day 1, animals were lightly anesthetized with isoflurane and the hairs between the shoulder were carefully removed before oxazolone (4%, 150 μL, 4:1 acetone:olive oil formulation) or vehicle solution was slowly applied for skin sensitization. Seven days after skin sensitization, the mice were fasted overnight, anesthetized with isoflurane inhalation, and a 1 mL syringe equipped with a 3.5-F catheter, filled with oxazolone solution, was inserted carefully about 4 cm into the colon of the mouse. Following insertion, 50 μL of the oxazolone solution (1%, 1:1 ethanol:water formulation) was injected very slowly (over 30 sec using an injection pump) into the colon. The catheter was removed and the mice were held vertically (head down) for 2 min to ensure that the entire oxazolone solution remained inside the colon. Drug treatment (PO, BID or TID) or vehicle was initiated a day prior to the oxazolone intrarectal (IR) challenge. Two-day post oxazolone intrarectal challenge, the Disease Activity Index (DAI) was assessed by treatment-blinded experimenters for each mouse according to the criteria score: stool consistency score (0, normal; 2, loose; 4, diarrhea), gross bleeding score (0, absence; 2, blood tinged; 4, presence), and weight loss score (0, none; 1, 1%-5%; 2, 5%-10%; 3, 10%-20%; 4, more than 20%); DAI=average of (stool consistency score+gross bleeding score+weight loss score).
Selected compounds of the invention were tested in the assay. Efficacy in the model is evidenced by a decrease in DAI score as compared with the score from vehicle treated animals.

For test [2], the system named is IL-4 induced STAT6 phosphorylation in THP-1 human monocytic cells. The conditions noted are these: THP-1 cells.
For test [3], the system named is IL-13 induced STAT6 phosphorylation in BEAS-2B human lung epithelial cells. To be noted: BEAS-2B cells.

In the case of `Cc1cc(Nc2cc3ncccc3c(N[C@@H]3C[C@H]4CCC[C@@H](C3)N4CC(=O)N(C)C)n2)n[nH]1` [Example 1-38], the “decrease in DAI score as compared with vehicle treated animals” value (“decrease in DAI score” below) in test [1] is “statistically significant decrease”.
On the same count and under the same terms, as for `Cc1cc(Nc2cc3ncccc3c(N[C@@H]3C[C@H]4CC[C@@H](C3)N4CCF)n2)n[nH]1` [Example 2, N^5-((1R,3s,5S)-8-(2-fluoroethyl)-8-azabicyclo[3.2.1]octan-3-yl)-N^7-(5-methyl-1H-pyrazol-3-yl)-1,6-naphthyridine-5,7-diamine], the entry is “statistically significant decrease”.
As for `CCC(=O)N1[C@@H]2CC[C@H]1C[C@H](Nc1nc(Nc3cc(C)[nH]n3)cc3ncccc13)C2` [Example 2-1], the “decrease in DAI score” value in test [1] is “did not exhibit a statistically significant decrease”.
On to `Cc1cc(Nc2cc3ncccc3c(NC3CC4CCCC(C3)N4C(=O)C(C)O)n2)n[nH]1` (stereo not drawn) [Example 2-16], for which the “decrease in DAI score” value in test [1] is on record as “did not exhibit a statistically significant decrease”.
Still for that read-out and setting: as for `Cc1cc(Nc2cc3ncccc3c(N[C@@H]3C[C@H]4CC[C@@H](C3)N4S(=O)(=O)c3cccnc3)n2)n[nH]1` [Example 3, N^7-(5-methyl-1H-pyrazol-3-yl)-N^5-((1R,3s,5S)-8-(pyridin-3-ylsulfonyl)-8-azabicyclo[3.2.1]octan-3-yl)-1,6-naphthyridine-5,7-diamine], the entry is “statistically significant decrease”; as for `Cc1cc(Nc2cc3ncccc3c(N[C@@H]3C[C@H]4CCC[C@@H](C3)N4C(=O)CN(C)C)n2)n[nH]1` [Example 4, 2-(Dimethylamino)-1-((1R,3s,5S)-3-((7-((5-methyl-1H-pyrazol-3-yl)amino)-1,6-naphthyridin-5-yl)amino)-9-azabicyclo[3.3.1]nonan-9-yl)ethan-1-one], “statistically significant decrease”.
In the case of `Cc1cc(Nc2cc3ncccc3c(N[C@@H]3C[C@H]4CC[C@@H](C3)N4S(=O)(=O)C3CC3)n2)n[nH]1` [Example 4-4], in test [1], the “decrease in DAI score” value is “did not exhibit a statistically significant decrease”.
Same read-out and setting: as for `Cc1cc(Nc2cc3ncccc3c(N[C@@H]3C[C@H]4CC[C@@H](C3)N4C(=O)C(F)F)n2)n[nH]1` [Example 5, 2,2-difluoro-1-((1R,3s,5S)-3-((7-((5-methyl-1H-pyrazol-3-yl)amino)-1,6-naphthyridin-5-yl)amino)-8-azabicyclo[3.2.1]octan-8-yl)ethan-1-one], the entry is “statistically significant decrease”; as for `COCCS(=O)(=O)N1[C@@H]2CC[C@H]1C[C@H](Nc1nc(Nc3cc(C)[nH]n3)cc3ncccc13)C2` [Example 6, N^5-((1R,3s,5S)-8-((2-methoxyethyl)sulfonyl)-8-azabicyclo[3.2.1]octan-3-yl)-N^7-(5-methyl-1H-pyrazol-3-yl)-1,6-naphthyridine-5,7-diamine], “statistically significant decrease”.
With `Cc1cnc2cc(Nc3cc(C)[nH]n3)nc(N[C@@H]3C[C@H]4CCC[C@@H](C3)N4CCC#N)c2c1` [Example 6-6], the “THP-1 IL4 pIC50” value in test [2] was “A (A represents a pEC50 value ≥7.5 (EC50≤32 nM))”. The “BEAS2B pIC50” value in test [3] is reported as “A (A represents a pEC50 value ≥7.5 (EC50≤32 nM))”.
As for `Cc1cnc2cc(Nc3cc(C)[nH]n3)nc(N[C@@H]3C[C@H]4CCC[C@@H](C3)N4S(=O)(=O)N3CC(C#N)C3)c2c1` [Example 6-9], the “THP-1 IL4 pIC50” value in test [2] was “A (A represents a pEC50 value ≥7.5 (EC50≤32 nM))”. For the same compound, the “BEAS2B pIC50” value in test [3] is recorded as “A (A represents a pEC50 value ≥7.5 (EC50≤32 nM))”.
Regarding `COc1cnc2cc(Nc3cc(C)[nH]n3)nc(N[C@@H]3C[C@H]4CC[C@@H](C3)N4CC(C)C)c2c1` [Example 6-14], the “THP-1 IL4 pIC50” value in test [2] was “A (A represents a pEC50 value ≥7.5 (EC50≤32 nM))”. Moreover, the “BEAS2B pIC50” value in test [3] is given as “A (A represents a pEC50 value ≥7.5 (EC50≤32 nM))”.
As for `COc1cnc2cc(Nc3cc(C)[nH]n3)nc(N[C@@H]3C[C@H]4CC[C@@H](C3)N4CCC(F)(F)F)c2c1` [Example 6-15], the “THP-1 IL4 pIC50” value in test [2] is “A (A represents a pEC50 value ≥7.5 (EC50≤32 nM))”. In addition, the “BEAS2B pIC50” value in test [3] is reported as “A (A represents a pEC50 value ≥7.5 (EC50≤32 nM))”.
Consider `COc1cnc2cc(Nc3cc(C)[nH]n3)nc(N[C@@H]3C[C@H]4CCC[C@@H](C3)N4Cc3ccncc3)c2c1` [Example 6-28], for which the “THP-1 IL4 pIC50” value in test [2] was “A (A represents a pEC50 value ≥7.5 (EC50≤32 nM))”. In addition, the “BEAS2B pIC50” value in test [3] is recorded as “A (A represents a pEC50 value ≥7.5 (EC50≤32 nM))”.
In the case of `COc1cnc2cc(Nc3cc(C)[nH]n3)nc(N[C@@H]3C[C@H]4CCC[C@@H](C3)N4S(C)(=O)=O)c2c1` [Example 6-29], the “THP-1 IL4 pIC50” value in test [2] is reported as “A (A represents a pEC50 value ≥7.5 (EC50≤32 nM))”. Moreover, in test [3], the “BEAS2B pIC50” value is recorded as “A (A represents a pEC50 value ≥7.5 (EC50≤32 nM))”.
Consider `COc1cnc2cc(Nc3cc(C)[nH]n3)nc(N[C@@H]3C[C@H]4CCC[C@@H](C3)N4CCC#N)c2c1` [Example 6-31], for which the “THP-1 IL4 pIC50” value in test [2] is recorded as “A (A represents a pEC50 value ≥7.5 (EC50≤32 nM))”. Besides, the “BEAS2B pIC50” value in test [3] was “A (A represents a pEC50 value ≥7.5 (EC50≤32 nM))”.
For `COC(=O)c1cnc2cc(Nc3cc(C)[nH]n3)nc(N[C@@H]3C[C@H]4CCC[C@@H](C3)N4CCC#N)c2c1` [Example 6-47], the “THP-1 IL4 pIC50” value in test [2] is reported as “A (A represents a pEC50 value ≥7.5 (EC50≤32 nM))”. In test [3], the “BEAS2B pIC50” value is “A (A represents a pEC50 value ≥7.5 (EC50≤32 nM))”.
`CCS(=O)(=O)N1[C@@H]2CC[C@H]1C[C@H](Nc1nc(Nc3cc(C)[nH]n3)cc3ncccc13)C2` [Example 7, N^5-((1R,3s,5S)-8-(ethylsulfonyl)-8-azabicyclo[3.2.1]octan-3-yl)-N^7-(5-methyl-1H-pyrazol-3-yl)-1,6-naphthyridine-5,7-diamine]: the “decrease in DAI score” value in test [1] is “did not exhibit a statistically significant decrease”.
Same read-out and setting: as for `Cc1cc(Nc2cc3ncccc3c(N[C@@H]3C[C@H]4CCC[C@@H](C3)N4S(=O)(=O)c3cccnc3)n2)n[nH]1` [Example 8, N^7-(5-methyl-1H-pyrazol-3-yl)-N^5-((1R,3s,5S)-9-(pyridin-3-ylsulfonyl)-9-azabicyclo[3.3.1]nonan-3-yl)-1,6-naphthyridine-5,7-diamine], the entry is “statistically significant decrease”.
Regarding `Cc1cc(Nc2nc(N[C@@H]3C[C@H]4CC[C@@H](C3)N4S(C)(=O)=O)c3cccnc3c2F)n[nH]1` [Example 8-2], the “THP-1 IL4 pIC50” value in test [2] is listed as “A (A represents a pEC50 value ≥7.5 (EC50≤32 nM))”. The “BEAS2B pIC50” value in test [3] was “C (C represents a pEC50 value <6.7 (EC50>200 nM))”.
As to `Cc1cc(Nc2nc(N[C@@H]3C[C@H]4CCC[C@@H](C3)N4S(C)(=O)=O)c3cccnc3c2F)n[nH]1` [Example 8-10], the “THP-1 IL4 pIC50” value in test [2] was “A (A represents a pEC50 value ≥7.5 (EC50≤32 nM))”. Also, the “BEAS2B pIC50” value in test [3] is listed as “A (A represents a pEC50 value ≥7.5 (EC50≤32 nM))”.
As to `Cc1cc(Nc2nc(N[C@@H]3C[C@H]4CCC[C@@H](C3)N4S(=O)(=O)c3cccnc3)c3cccnc3c2F)n[nH]1` [Example 8-12], the “THP-1 IL4 pIC50” value in test [2] is given as “A (A represents a pEC50 value ≥7.5 (EC50≤32 nM))”. Further, the “BEAS2B pIC50” value in test [3] was “A (A represents a pEC50 value ≥7.5 (EC50≤32 nM))”.
As for `Cc1cc(Nc2nc(N[C@@H]3C[C@H]4CCC[C@@H](C3)N4Cc3ccncc3)c3cccnc3c2F)n[nH]1` [Example 8-14], the “THP-1 IL4 pIC50” value in test [2] is “A (A represents a pEC50 value ≥7.5 (EC50≤32 nM))”. In addition, the “BEAS2B pIC50” value in test [3] is “A (A represents a pEC50 value ≥7.5 (EC50≤32 nM))”.
Take `Cc1cc(Nc2cc3ncccc3c(N[C@@H]3C[C@H]4CCC[C@@H](C3)N4S(=O)(=O)c3ccccc3)n2)n[nH]1` [Example 9, N^7-(5-methyl-1H-pyrazol-3-yl)-N^5-((1R,3s,5S)-9-(phenylsulfonyl)-9-azabicyclo[3.3.1]nonan-3-yl)-1,6-naphthyridine-5,7-diamine]: the “decrease in DAI score” value in test [1] is recorded as “did not exhibit a statistically significant decrease”.
Regarding `Cc1cc(Nc2cc3ncccc3c(N[C@@H]3C[C@H]4CCC[C@@H](C3)N4S(=O)(=O)N3CC(C#N)C3)n2)n[nH]1` [Example 11], in test [1], the “decrease in DAI score” value was “did not exhibit a statistically significant decrease”.
On the same count and under the same terms, as for `Cc1cc(Nc2cc3nc(CO)ccc3c(N[C@@H]3C[C@H]4CC[C@@H](C3)N4C(=O)OCC(C)C)n2)n[nH]1` [Example 12, Isobutyl (1R,3s,5S)-3-((2-(hydroxymethyl)-7-((5-methyl-1H-pyrazol-3-yl)amino)-1,6-naphthyridin-5-yl)amino)-8-azabicyclo[3.2.1]octane-8-carboxylate], the entry is “statistically significant decrease”; as for `Cc1cc(Nc2cc3ncccc3c(N[C@@H]3C[C@H]4CC[C@@H](C3)N4S(=O)(=O)N3CC(C#N)C3)n2)n[nH]1` [Example 13], “did not exhibit a statistically significant decrease”.
